Reference: PMC10367051, “Comprehensive Mechanistic View of the Hydrolysis of Oxadiazole-Based Inhibitors by Histone Deacetylase 6 (HDAC6)” (ACS Chemical Biology, 2023)

Tests used:
Type in all cases: biochemical
[1] = target: T1, HDAC1 (Homo sapiens, UniProt Q13547); experiment: Fluorometric HDAC inhibition assay, HDAC1; conditions: purified human protein; Ac-Gly-Ala-[Lys-Ac]-AMC substrate 10 μM; 15 min preincubation
T1 construct: made in house; host or cells: HEK293/T17
Method: (§1) Large-scale expression of recombinant human HDACs was carried out as described previously.[32],[37] Briefly, HEK293/T17 cells were transiently transfected with expression pMM222 plasmids comprising N-terminally tagged (TwinStrep-FLAG-HALO tag; Figure S1) HDAC genes using linear poly(ethyleneimine) (PEI, Polysciences Inc.). Cells were harvested three days post-transfection, and cell pellets were resuspended in the lysis buffer (100 mM Tris-HCl, 10 mM NaCl, 5 mM KCl, 2 mM MgCl2, and 10% glycerol at pH 8.0). Cells were disrupted by sonication, cell lysates were cleared by centrifugation, and soluble fusion proteins were first purified by Streptactin affinity chromatography (IBA). For all HDACs but HDACs 1, 10, and 11, the N-terminal tag was cleaved off overnight by the addition of TEV protease (10:1 HDAC/TEV ratio). Size-exclusion chromatography on a Superose 6 column (GE Healthcare Bio-Sciences; running buffer 30 mM HEPES, 140 mM NaCl, 10 mM KCl, 3% glycerol, and 0.25 mM TCEP) was used as the final purification step for all HDAC constructs.
(§2) Optimized fluorometric assays were used to determine inhibition constants of studied compounds against individual HDAC isoforms as described previously.[32] Briefly, reactions were performed in the activity buffer comprising 50 mM HEPES, 140 mM NaCl, and 10 mM KCl at pH 7.4 supplemented with 1 mg mL^–1 bovine serum albumin (BSA), 1 mM tris(2-carboxyethyl)phosphine (TCEP), 10 μM substrates, and optimized concentrations of HDACs. The Ac-Gly-Ala-[Lys-Ac]-7-amino-methylcoumarylamide (AMC) substrate was used to profile HDACs 1, 2, 3, and 6; Boc-[Lys-TFA]-7-amino-methylcoumarylamide was used for HDACs 4, 5, 7, 8, and 9 (both substrates: Bachem); fluorescein-labeled N8-acetylspermidine was used for HDAC10;[32] and an internally quenched TNFα-derived peptide derivative was used for HDAC11.[39] Deacetylation reactions were monitored either by high-performance liquid chromatography (HPLC) (HDAC10) or by quantification of released AMC (λex/λem = 365/440 nm) using a CLARIOstar plate reader (BMG Labtech GmbH).

[2] = target: T2, HDAC2 (Homo sapiens, UniProt Q92769); experiment: Fluorometric HDAC inhibition assay, HDAC2; conditions: purified human protein; Ac-Gly-Ala-[Lys-Ac]-AMC substrate 10 μM; 15 min preincubation
T2 construct: TwinStrep-FLAG-HALO (N, cleaved yes); made in house; host or cells: HEK293/T17
T2 sequence (Q92769 whole entry): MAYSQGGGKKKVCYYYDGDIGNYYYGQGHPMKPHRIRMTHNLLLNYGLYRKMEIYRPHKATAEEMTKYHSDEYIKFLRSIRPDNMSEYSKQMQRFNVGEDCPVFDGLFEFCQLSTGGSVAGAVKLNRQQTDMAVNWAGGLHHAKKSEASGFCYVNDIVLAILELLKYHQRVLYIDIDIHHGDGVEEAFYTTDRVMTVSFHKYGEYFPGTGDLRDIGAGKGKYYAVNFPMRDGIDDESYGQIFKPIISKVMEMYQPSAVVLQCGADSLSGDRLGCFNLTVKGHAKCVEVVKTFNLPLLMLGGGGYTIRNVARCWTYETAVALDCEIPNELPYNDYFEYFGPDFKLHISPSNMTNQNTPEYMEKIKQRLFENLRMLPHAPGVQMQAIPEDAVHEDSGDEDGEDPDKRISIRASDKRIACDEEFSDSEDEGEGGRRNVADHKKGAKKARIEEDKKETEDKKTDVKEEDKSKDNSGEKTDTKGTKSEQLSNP
Method: as §1, §2

[3] = target: T3, HDAC6 (Homo sapiens, UniProt Q9UBN7); experiment: Fluorometric HDAC inhibition assay, HDAC6; conditions: for fold more potent compared to the hydrazide product 4: HDAC6 potency ratio; for IC50: purified human protein, Ac-Gly-Ala-[Lys-Ac]-AMC substrate 10 μM, 15 min preincubation
T3 construct: TwinStrep-FLAG-HALO (N, cleaved yes); made in house; host or cells: HEK293/T17
T3 sequence (Q9UBN7 1-1215): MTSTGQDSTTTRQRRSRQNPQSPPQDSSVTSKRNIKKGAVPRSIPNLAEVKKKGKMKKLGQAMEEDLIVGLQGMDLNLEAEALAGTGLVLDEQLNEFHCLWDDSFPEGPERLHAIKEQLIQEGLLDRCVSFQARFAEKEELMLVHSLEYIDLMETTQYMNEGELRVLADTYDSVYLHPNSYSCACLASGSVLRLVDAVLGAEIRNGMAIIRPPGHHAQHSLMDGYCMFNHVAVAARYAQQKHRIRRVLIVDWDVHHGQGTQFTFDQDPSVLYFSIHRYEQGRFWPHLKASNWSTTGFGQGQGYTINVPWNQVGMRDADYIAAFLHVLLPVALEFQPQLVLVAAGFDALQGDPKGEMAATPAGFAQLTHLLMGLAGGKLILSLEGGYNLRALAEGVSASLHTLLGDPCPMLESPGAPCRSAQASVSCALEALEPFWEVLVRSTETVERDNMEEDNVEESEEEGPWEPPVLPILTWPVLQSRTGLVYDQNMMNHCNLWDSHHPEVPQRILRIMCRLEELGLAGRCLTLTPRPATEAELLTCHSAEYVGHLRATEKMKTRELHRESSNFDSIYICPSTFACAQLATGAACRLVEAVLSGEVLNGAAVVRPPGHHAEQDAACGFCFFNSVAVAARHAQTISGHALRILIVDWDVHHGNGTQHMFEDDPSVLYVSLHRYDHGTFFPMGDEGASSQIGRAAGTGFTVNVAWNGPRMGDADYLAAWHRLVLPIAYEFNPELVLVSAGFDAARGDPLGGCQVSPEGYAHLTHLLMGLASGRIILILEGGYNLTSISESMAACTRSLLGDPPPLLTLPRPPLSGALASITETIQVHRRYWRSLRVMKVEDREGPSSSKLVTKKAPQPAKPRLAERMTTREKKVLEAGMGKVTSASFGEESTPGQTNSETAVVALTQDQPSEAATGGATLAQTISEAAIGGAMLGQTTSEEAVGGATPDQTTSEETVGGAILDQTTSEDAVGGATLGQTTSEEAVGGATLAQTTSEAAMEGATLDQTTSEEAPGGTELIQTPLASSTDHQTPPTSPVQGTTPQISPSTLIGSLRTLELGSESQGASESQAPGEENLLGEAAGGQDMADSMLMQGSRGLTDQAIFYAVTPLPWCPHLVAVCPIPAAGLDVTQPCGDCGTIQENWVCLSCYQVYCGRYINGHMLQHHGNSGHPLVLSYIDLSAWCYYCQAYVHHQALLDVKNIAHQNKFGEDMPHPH
Method: as §1, §2

[4] = target: T4, HDAC9 (Homo sapiens, UniProt Q9UKV0); experiment: Fluorometric HDAC inhibition assay, HDAC9; conditions: purified human protein; Boc-[Lys-TFA]-AMC substrate 10 μM; 15 min preincubation
T4 construct: TwinStrep-FLAG-HALO (N, cleaved yes); made in house; host or cells: HEK293/T17
T4 sequence (Q9UKV0 whole entry): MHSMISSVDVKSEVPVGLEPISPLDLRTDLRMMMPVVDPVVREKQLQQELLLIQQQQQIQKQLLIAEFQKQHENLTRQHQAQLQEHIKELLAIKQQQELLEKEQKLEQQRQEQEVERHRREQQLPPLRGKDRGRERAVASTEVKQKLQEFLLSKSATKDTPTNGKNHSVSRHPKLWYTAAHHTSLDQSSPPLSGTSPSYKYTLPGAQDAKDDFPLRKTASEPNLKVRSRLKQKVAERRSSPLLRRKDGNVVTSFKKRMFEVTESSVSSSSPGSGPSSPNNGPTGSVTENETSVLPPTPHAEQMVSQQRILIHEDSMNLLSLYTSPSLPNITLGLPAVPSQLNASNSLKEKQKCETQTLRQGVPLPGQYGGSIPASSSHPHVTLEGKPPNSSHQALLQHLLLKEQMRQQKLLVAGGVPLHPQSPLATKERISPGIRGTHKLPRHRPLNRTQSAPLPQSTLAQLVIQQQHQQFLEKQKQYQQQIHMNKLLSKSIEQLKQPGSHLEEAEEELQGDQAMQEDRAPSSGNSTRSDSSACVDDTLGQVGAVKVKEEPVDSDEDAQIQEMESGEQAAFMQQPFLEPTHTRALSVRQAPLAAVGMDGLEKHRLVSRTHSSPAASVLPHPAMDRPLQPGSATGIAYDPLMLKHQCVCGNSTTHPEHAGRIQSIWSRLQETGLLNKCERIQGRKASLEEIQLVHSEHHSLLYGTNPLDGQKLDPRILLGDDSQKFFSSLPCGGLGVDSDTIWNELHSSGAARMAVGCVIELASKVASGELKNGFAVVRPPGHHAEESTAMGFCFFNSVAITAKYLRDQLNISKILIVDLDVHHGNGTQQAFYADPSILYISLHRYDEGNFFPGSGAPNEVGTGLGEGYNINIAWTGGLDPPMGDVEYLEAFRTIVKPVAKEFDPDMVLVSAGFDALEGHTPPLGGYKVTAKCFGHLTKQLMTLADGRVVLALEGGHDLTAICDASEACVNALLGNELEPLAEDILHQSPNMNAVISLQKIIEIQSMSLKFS
Method: as §1, §2

T1 sequence (Q13547 whole entry): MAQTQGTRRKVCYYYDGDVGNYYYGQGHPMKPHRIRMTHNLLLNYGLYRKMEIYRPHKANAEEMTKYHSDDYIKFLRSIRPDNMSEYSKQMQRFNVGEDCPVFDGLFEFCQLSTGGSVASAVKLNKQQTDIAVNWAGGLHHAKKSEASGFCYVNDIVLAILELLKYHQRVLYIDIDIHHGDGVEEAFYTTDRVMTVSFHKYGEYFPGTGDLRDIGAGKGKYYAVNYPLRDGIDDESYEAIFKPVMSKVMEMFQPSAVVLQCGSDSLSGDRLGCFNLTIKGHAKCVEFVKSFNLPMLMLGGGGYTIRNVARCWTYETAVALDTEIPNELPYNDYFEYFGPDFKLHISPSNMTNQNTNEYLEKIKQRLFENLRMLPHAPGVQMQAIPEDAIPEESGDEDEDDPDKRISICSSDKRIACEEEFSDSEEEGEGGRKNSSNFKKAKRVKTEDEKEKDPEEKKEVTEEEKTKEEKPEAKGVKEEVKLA

| Structure (SMILES) | IC50 [1] | IC50 [2] | fold more potent compared to the hydrazide product 4 [3] | IC50 [4] | IC50 [3] |
| --- | --- | --- | --- | --- | --- |
| CS(=O)(=O)N(Cc1ccc(-c2nnc(C(F)F)o2)cn1)c1cccc(Cl)c1 [compound 8] | > 20 µM | > 20 µM | approximately 1000 fold | > 20 µM | – |
| CS(=O)(=O)N(Cc1ccc(-c2nnc(C(F)(F)F)o2)cn1)c1cccc(Cl)c1 [compound 7] | > 20 µM | 17.4 µM | ~150 fold | > 20 µM | 0.0146 ± 0.008 µM |
| CS(=O)(=O)N(Cc1ccc(C(=O)NNC(=O)C(F)(F)F)cn1)c1cccc(Cl)c1 [compound 5] | 9.17 µM | > 20 µM | – | – | 10.8 µM |
| CS(=O)(=O)N(Cc1ccc(C(=O)NN)cn1)c1cccc(Cl)c1 [compound 4] | > 20 µM | > 20 µM | – | > 20 µM | 2.16 ± 0.392 µM |
| CS(=O)(=O)N(Cc1ccc(C(=O)NNC(=O)C(F)F)cn1)c1cccc(Cl)c1 [compound 6] | > 20 µM | – | – | – | 14.5 µM |
